{
  "source": "patent US5424073A",
  "about": "(Georgetown University, priority 1993, dated 1995)",
  "key": {"[1]": {"experiment": "Stability studies of liposomal and free taxol", "assay_type": "physicochemical", "details": "free taxol 0.6 mg/ml in saline"}, "Male CD2 F1 mice": {"test_system": "Male CD2 F1 mice", "experiment": "Toxicity evaluation of free and liposomal taxol in normal mice", "assay_type": "in vivo, mouse", "details": "25 mg/kg i.v., repeated day 5 and 9", "protocol": "Male CD2 F1 mice weighing 22-25 gm were used in this study. […] Taxol liposomes were prepared using cardiolipin, phosphatidyl choline, and cholesterol. […] The same doses were repeated on mice at day 5 and 9."}, "[2]": {"test_system": "HL-60 promyelocytic leukemia cells", "experiment": "Growth inhibition (cytotoxicity) in HL-60 leukemia cells", "assay_type": "cell-based", "details": "Homo sapiens; HL-60, 72 hours, 37° C., trypan blue; FIG. 3", "protocol": "HL-60 promyelocytic leukemia cells were grown in tissue culture in RPM1-1640 medium supplemented with 10% fetal bovine serum. All cultures were maintained in plastic tissue culture flasks and kept in an incubator at 37° C. in humidified air containing 5% CO2.\nFor these experiments, 1×10^5 cells in exponential growth phase were plated into 25 cm^2 flasks. […] Cells were counted in a hemocytometer and viability was determined by trypan blue exclusion. The cell survival was compared to the control cells and IC50 (inhibitory concentration for 50% of the cells) values for each drug was determined."}, "HL-60 cells": {"test_system": "HL-60 cells", "assay_type": "cell-based, human", "details": "10 μg/ml, FIG. 4", "protocol": "Briefly, exponentially growing cells were incubated in 100 mm petri dishes with drug containing medium at 37° C. […] The cell pellets were suspended in 0.5 ml of 2% SDS solution and then sonicated for 5 minutes in a cup-horn sonicator. The cell homogenate was extracted with 2 ml of methanol."}, "HL-60/VCR cells [3]": {"test_system": "HL-60/VCR cells", "experiment": "Cytotoxicity in multidrug resistant HL-60/VCR cells", "assay_type": "cell-based", "details": "Homo sapiens, HL60/VCR, 72 hours, FIG. 5", "protocol": "The HL-60 VCR cells were grown in media at 37° C. with 5% CO2.\nAfter 72 hours of incubation, cells in each flask were counted by hemocytometer and viability was determined by trypan blue exclusion. Percent survival of treated cells was determined relative to untreated control. Cytotoxic activity was expressed as IC50 which was defined as the concentration of drug resulting 50% survival of the cells compared to control."}, "HL-60/VCR cells [4]": {"test_system": "HL-60/VCR cells", "experiment": "Intracellular taxol accumulation in HL-60/VCR cells", "assay_type": "cell-based, human", "details": "4 hours", "protocol": "The cells were suspended in cold PBS and counted, and centrifuged again. The cell pellets were suspended in 0.5 ml of 2% SDS solution and then sonicated for 5 minutes in a cup-horn sonicator (Heat Systems, Farmingdate, N.Y.). Resulting cell homogenate was extracted with 4 ml of methanol, vortexed for 1 minute and centrifuged for 20 minutes at 3000 rpm. The samples were read by using HPLC. The concentration of drug in […] was calculated using a standard calibration curve for drug spiked cells and were then treated similarly."}, "B16 melanoma": {"test_system": "B16 melanoma", "details": "i.p. implanted; cited from earlier work"}, "L1210 leukemia": {"test_system": "L1210 leukemia", "details": "in vivo; cited from earlier work"}, "P388 leukemia": {"test_system": "P388 leukemia", "details": "in vivo; cited from earlier work"}, "[5]": {"test_system": "human MX-1 mammary tumor xenograft", "details": "in vivo; cited from earlier work"}, "advanced ovarian tumors": {"test_system": "advanced ovarian tumors", "details": "women with advanced ovarian tumors; cited from earlier work"}, "[6]": {"test_system": "lymphoma, ovarian and breast cancers", "details": "cited from earlier work"}, "metastatic breast cancer": {"test_system": "metastatic breast cancer", "details": "in vivo; cited from earlier work"}, "tubulin": {"test_system": "tubulin", "details": "cited from earlier work"}, "cell replication": {"test_system": "cell replication", "details": "in vitro; cited from earlier work"}, "[7]": {"details": "cited from earlier work"}, "[8]": {"details": "cited from earlier work", "remark": "listed apart in the source"}},
  "data": [
    {"smiles": "CC(=O)O[C@H]1C(=O)[C@@]2(C)[C@H]([C@H](OC(=O)c3ccccc3)[C@]3(O)C[C@H](OC(=O)[C@H](O)[C@@H](NC(=O)c4ccccc4)c4ccccc4)C(C)=C1C3(C)C)[C@]1(OC(C)=O)CO[C@@H]1C[C@@H]2O", "note": "(relative stereo) [Taxol, (2aR(2aα,4β,4aβ,6β,9α(αR*,βS*) ,11α, 12α,12aα,12bα))-β-(β-(benzoylamino)-α-hydroxybenzenepropanoic acid 6,12b-bis(acetyloxy)-12-(benzoyloxy)-2a,3,4,4a,5,6,9,10,11,12,12a,12b-dodecahydro-4,11-dihydroxy-4a, 8,13,13-tetramethyl-5-oxo-7,11-methano-14-cyclodeca(3,4)benz(1,2-6)oxet-9-yl ester]", "values": [
      {"measurement": "degradation time in saline", "setting": "[1]", "result": "≤ 3", "unit": "h"},
      {"measurement": "sclerosis of the vein", "setting": "Male CD2 F1 mice", "result": "sclerosis of the vein"},
      {"measurement": "mortality / toxicity by day 12", "setting": "Male CD2 F1 mice; ten mice per group, FIG. 2", "result": "three mice in the free taxol group died because of toxicity"},
      {"measurement": "IC50", "setting": "[2]", "result": 2.5, "unit": "ng/mL"},
      {"measurement": "cellular concentration of taxol at 2 and 4 hours", "setting": "HL-60 cells; 2 and 4 hours, HL-60, relative to 1 hour", "result": "same taxol concentration"},
      {"measurement": "cellular concentration of taxol at 1 hour", "setting": "HL-60 cells; 1 hour, HL-60", "result": 5.18, "unit": "μg/10^7 cells"},
      {"measurement": "IC50", "setting": "HL-60/VCR cells [3]", "result": 2.43, "unit": "µg/mL"},
      {"measurement": "decrease in cellular uptake versus liposomal taxol", "setting": "HL-60/VCR cells [4]", "result": "threefold decrease in cellular uptake"},
      {"measurement": "antineoplastic activity against B16 melanoma", "setting": "B16 melanoma", "result": "significant antineoplastic activity"},
      {"measurement": "antineoplastic activity against L1210 leukemia", "setting": "L1210 leukemia", "result": "significant antineoplastic activity"},
      {"measurement": "antineoplastic activity against P388 leukemia", "setting": "P388 leukemia", "result": "significant antineoplastic activity"},
      {"measurement": "antineoplastic activity against MX-1 xenograft", "setting": "[5]", "result": "significant antineoplastic activity"},
      {"measurement": "tumor shrinkage, share of women", "setting": "advanced ovarian tumors", "result": "30 to 40", "unit": "%"},
      {"measurement": "activity in clinical trials", "setting": "[6]", "result": "sufficient activity"},
      {"measurement": "treatment of metastatic breast cancer", "setting": "metastatic breast cancer", "result": "considerable promise"},
      {"measurement": "effect on tubulin polymerization", "setting": "tubulin", "result": "markedly enhances all aspects of tubulin polymerization"},
      {"measurement": "inhibition of cell replication", "setting": "cell replication", "result": "potent inhibitor of cell replication in vitro"},
      {"measurement": "toxicities despite pretreatment and prolonged infusion", "setting": "[7]; antihistamine and corticosteroids, infusion six to twenty four hours", "result": "serious toxicities which are often fatal"},
      {"measurement": "cardiac toxicity", "setting": "[7]; human, in vivo", "result": "treatment limiting"},
      {"measurement": "degradation time once diluted in saline", "setting": "[8]; diluted in saline solution", "result": "≤ 24", "unit": "h"},
      {"measurement": "precipitation from dilution", "setting": "[8]; diluted in saline solution", "result": "the drug precipitates from dilution"},
      {"measurement": "solubility in water", "setting": "[8]; water", "result": "limited solubility in water"}
    ]}
  ]
}
